Laboratory results as given in article PMC9402538, “Rational design of a sensitivity-enhanced tracer for discovering efficient APC–Asef inhibitors” (Nature Communications, 2022).
Where a SMILES comes first, the peptide text is derived from it. The star is where a group is joined. Benzoyl(4-OMe) = COc1ccc(C(=O)*)cc1

Molecular target: T1, APC N641A (Homo sapiens, UniProt P25054, N641A)
T1 sequence (P25054 303-739 N641A): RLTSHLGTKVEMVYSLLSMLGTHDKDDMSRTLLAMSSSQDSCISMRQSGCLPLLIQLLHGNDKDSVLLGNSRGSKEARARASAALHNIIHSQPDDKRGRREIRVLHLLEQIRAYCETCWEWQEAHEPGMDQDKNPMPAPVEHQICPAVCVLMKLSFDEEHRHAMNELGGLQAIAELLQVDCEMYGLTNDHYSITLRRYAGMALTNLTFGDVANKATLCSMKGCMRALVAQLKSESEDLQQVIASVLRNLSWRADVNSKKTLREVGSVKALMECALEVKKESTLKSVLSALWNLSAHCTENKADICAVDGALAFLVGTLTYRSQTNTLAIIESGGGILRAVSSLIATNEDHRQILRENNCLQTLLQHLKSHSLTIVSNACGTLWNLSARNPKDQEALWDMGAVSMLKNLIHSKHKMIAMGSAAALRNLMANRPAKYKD
Test: ITC assay, APC N641A mutant
Format: binding
Protocol: ITC experiments were performed using a MicroCal ITC200 calorimeter (Malvern Panalytical Ltd.). APC protein and peptide inhibitors were diluted with buffer containing 50 mM HEPES pH 7.5, 300 mM NaCl and 1 mM EDTA. The cells were loaded with APC proteins at 10–20 μM. All injections were performed using an initial injection of 0.2 μL followed by 19 injections of 2 μL at 100–200 μM. All measurements were carried out at 30 °C. The data were analyzed using a single-site binding model within MicroCal ITC200 analysis software to generate the stoichiometry (N), enthalpy changes (ΔH), entropy changes (ΔS), and the association constant (K) of binding. The changes in free energy (ΔG) were calculated (ΔG = ΔH-TΔS).

**Q.** What does the source list for `COc1ccc(C(=O)N[C@@H](C)C(=O)NCC(=O)N[C@@H](CCC(=O)O)C(=O)N[C@@H](CO)C(=O)N[C@@H](CC(C)C)C(=O)N[C@@H](Cc2ccc(O)cc2)C(=O)N[C@@H](CCC(=O)O)C(N)=O)cc1` [MAI-516] ({Benzoyl(4-OMe)}-AGESLYE-NH2)?
**A.** reduction of binding affinity vs APC WT: ~2 fold; -TΔS (30 °C): 5.45 kcal/mol; L/P ratio (30 °C): 0.88; ΔG (30 °C): -11 kcal/mol; Kd (ITC, 30 °C): 12 nM
